Measured values taken from PubChem BioAssay (NCI).
Where “and” joins values, the source holds several entries; their conditions need not be identical. Equal values may be shown once.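 Growth conditions: 96-well plates. Treatment: test compound, 48 hours, 5 concentrations. Analysis: linear interpolation between bracketing concentrations; unreached endpoints set to highest concentration. The concentration for 50% growth inhibition is given as GI50. The concentration for full growth arrest is given as TGI.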

Key:
Test in all cases: NCI-60 cell line screen, 48 h
ACHN renal = system: ACHN renal
K-562 leukemia = system: K-562 leukemia
SF-539 CNS = system: SF-539 CNS
SF-295 CNS = system: SF-295 CNS
U251 CNS = system: U251 CNS
NCI-H522 lung = system: NCI-H522 lung
HOP-62 NSCLC = system: HOP-62 NSCLC
HOP-92 NSCLC = system: HOP-92 NSCLC
OVCAR-5 ovarian = system: OVCAR-5 ovarian
CCRF-CEM leukemia = system: CCRF-CEM leukemia

Compound	TGI (ACHN renal)	TGI (K-562 leukemia)	TGI (SF-539 CNS)	TGI (SF-295 CNS)	TGI (U251 CNS)	TGI (NCI-H522 lung)	TGI (HOP-62 NSCLC)	TGI (HOP-92 NSCLC)	TGI (OVCAR-5 ovarian)	TGI (CCRF-CEM leukemia)	GI50 (ACHN renal)	GI50 (K-562 leukemia)	GI50 (SF-539 CNS)	GI50 (SF-295 CNS)	GI50 (U251 CNS)	GI50 (NCI-H522 lung)	GI50 (HOP-62 NSCLC)	GI50 (HOP-92 NSCLC)	GI50 (OVCAR-5 ovarian)	GI50 (CCRF-CEM leukemia)
COC(=O)C1=C(c2ccc(Cl)cc2)C(O)N=C(NN)N1 (stereo not given)	> 100 µM	> 100 µM	> 100 µM	> 100 µM	> 100 µM	> 100 µM	> 100 µM	> 100 µM	> 100 µM	> 100 µM	–	–	–	–	–	–	–	–	–	–
O=C(CC(=O)c1ccccc1)C(=O)NC12CC3CC(CC(C3)C1)C2	> 100 µM	> 100 µM	> 100 µM	> 100 µM	> 100 µM	> 100 µM	> 100 µM	> 100 µM	> 100 µM	> 80.4 µM	–	–	–	–	–	–	–	–	–	–
O=C1NN=C(c2ccc([N+](=O)[O-])cc2)C1n1nc(-c2ccccc2)c2ccccc2c1=O (stereo not given)	> 100 µM	> 100 µM	> 100 µM	> 100 µM	> 100 µM	> 100 µM	> 100 µM	> 100 µM	> 100 µM	> 100 µM	–	–	–	–	–	–	–	–	–	–
Cc1ccc(-c2c3c(N)c4c(nc3nc3c2c(C)nn3-c2ccccc2)CCC4)cc1	8.38 µM	6.56 µM	3.46 µM	21.9 µM	4.01 µM	40.3 µM	8.23 µM	36.3 µM	13.1 µM	7.2 µM	3.16 µM	2420 nM	1860 nM	7.45 µM	1950 nM	18.2 µM	2700 nM	15.7 µM	5.69 µM	2540 nM
O=C1C=C(OCCCl)C(=O)c2c(O)ccc(O)c21	2.89 µM and 4.95 µM	3.11 µM	2.82 µM and 2.93 µM	3 µM and 4.53 µM	3.33 µM and 7.48 µM	4.44 µM and 3.14 µM	1.52 µM and 3.39 µM	3.8 µM and 8 µM	2.98 µM and 3.56 µM	3.5 µM	1.89 µM	1170 nM	1580 nM	2.44 µM	2760 nM	1.57 µM	1970 nM	3.43 µM	2.01 µM	1320 nM
COc1cc2nncc(SCc3ccc(Cl)c(Cl)c3)c2cc1OC	> 100 µM	> 100 µM	> 100 µM	> 100 µM	> 100 µM	> 100 µM	> 100 µM	> 100 µM	> 100 µM	> 100 µM	–	–	–	–	–	–	–	–	–	–
Nc1ccccc1C#C/C=C\C#Cc1ccccc1F	40 µM	> 100 µM	15.7 µM	16.6 µM	20.7 µM	23.5 µM	20.8 µM	> 100 µM	23.9 µM	7.14 µM	13.5 µM	3380 nM	3820 nM	3.9 µM	6440 nM	6.74 µM	6660 nM	17.9 µM	9.31 µM	729 nM
CN(C)c1ncnc2c1ccn2C1OC(CO)C(O)C1O (stereo not given)	> 100 µM	> 100 µM	> 100 µM	> 100 µM	> 100 µM	> 100 µM	> 100 µM	5.64 µM	> 100 µM	1.76 µM	3.18 µM	1400 nM	> 33500 nM	6.48 µM	> 100000 nM	> 100 µM	1710 nM	0.883 µM	5.51 µM	234 nM
